Reference: US7435721B2, “Transport peptides such as C-terminal Erns peptide and analogues thereof” (Pepscan Systems B.V., priority 2000, dated 2008)
Values after ≈ are worked out from the molar mass of the structure shown.

How the values were obtained:
guinea pig erythrocytes = experiment: Hemolytic assay, guinea pig erythrocytes; format: cell-based; conditions: 1% v/v, one hour at 37° C.
Method: Hemolytic assay. Hemolytic activity of various peptide concentrations was determined by incubation with human, guinea pig or sheep erythrocyte suspensions (final erythrocyte concentration, 1% v/v) for one hour at 37° C. After cooling and centrifugation, the optical density of the supernatants were measured at 540 nm. Peptide concentrations causing 50% hemolysis (EC50) were derived from the dose-response curves.

[1] = tested on: Escherichia coli ATCC 25922; experiment: Antimicrobial assay (MIC), E. coli; format: cell-based; conditions: overnight at 37° C.
Method: Antimicrobial assay. Two bacterial strains (Escherichia coli ATCC 25922 and Enterococcus faecalis ATCC 29212) were inoculated on heart infusion agar with 5% sheep blood and incubated aerobically overnight at 37° C. From the pure cultures, suspensions were made in saline to a density of 0.5 McFarland. These suspensions were diluted ten-fold in Mueller Hinton II broth, resulting in a final inoculum of approximately 10^7 cfu/ml.
Standard 96-well microtiter trays were filled with 100 ill of two-fold dilutions of peptide in physiologic salt solution in each well, resulting in the following concentration range: 4000, 2000, 1000, 500, 250, 125, 62.25, 31.63, 15.82, 7.96 and 0 μg/ml. The trays in column 12 were filled with 200 μl MH II broth (negative control).
Columns 1-11 of the microtiter trays were filled with 100 μl of the final inoculum of the bacterial suspensions, thus diluting the concentrations of the peptide two fold, resulting in the following peptide concentration range in the wells: 2000, 1000, 500, 250, 125, 62.25, 31.63, 15.82, 7.96, 3.98 and 0 μg/ml. In rows B, C and D, 100 μl of the final inoculum of E. coli and, in rows E, F and G, 100 μl of the final inoculum of E. faecalis was pipetted. The final bacterial concentration was approximately 5×10^5 cfu/well. All trays were sealed and incubated overnight at 37° C. After incubation, the microtiter trays were inspected visually for bacterial growth and the absorbance of the cultures at 630 nm (A630) was determined with an ELISA-reader. […] The experiment was performed independently in triplicate. The test was repeated again in triplicate after two days with the final peptide concentration range in the wells: 5000, 2500, 1250, 625, 312.5, 156.25, 78.12, 39.06, 19.58, 9.79, 4.88, 2.44 and 1.22 μg/ml.

| Compound | Hemolysis (peptide concentration causing 50% hemolysis) (guinea pig erythrocytes) | MIC (minimal inhibitory concentration needed to inhibit bacterial growth) [1] |
| --- | --- | --- |
| CC[C@H](C)[C@H](NC(=O)[C@H](CCCNC(=N)N)NC(=O)[C@H](CC(C)C)NC(=O)[C@H](CCC(N)=O)NC(=O)[C@H](CCCNC(=N)N)NC(=O)CNC(=O)[C@H](CC(C)C)NC(=O)[C@H](Cc1c[nH]c2ccccc12)NC(=O)[C@H](CO)NC(=O)[C@@H](NC(=O)[C@@H](NC(=O)[C@H](CCCNC(=N)N)NC(=O)[C@H](C)NC(=O)[C@H](C)NC(=O)CNC(=O)CCCC[C@@H]1SC[C@@H]2NC(=O)N[C@@H]21)C(C)C)[C@@H](C)O)C(=O)N[C@@H](C)C(=O)NCC(=O)N[C@@H](CCCCN)C(=O)N[C@@H](CCCNC(=N)N)C(=O)N[C@@H](CC(C)C)C(=O)N[C@@H](CCC(=O)O)C(=O)NCC(=O)N[C@@H](CCCNC(=N)N)C(=O)N[C@@H](CO)C(=O)N[C@@H](CCCCN)C(N)=O [196-220] | 0.16 mg/mL | 25 µg/mL (≈ 8.35 µM) |
| CC[C@H](C)[C@H](NC(=O)[C@H](CCCNC(=N)N)NC(=O)[C@H](CC(C)C)NC(=O)[C@H](CCC(N)=O)NC(=O)[C@H](CCCNC(=N)N)NC(=O)CNC(=O)[C@H](CC(C)C)NC(=O)[C@H](Cc1c[nH]c2ccccc12)NC(=O)[C@H](CO)NC(=O)[C@@H](NC(=O)[C@@H](NC(=O)[C@H](CCCNC(=N)N)NC(=O)[C@H](C)NC(=O)[C@H](C)NC(=O)CNC(=O)[C@H](CCC(N)=O)NC(=O)[C@H](CCCNC(=N)N)NC(=O)[C@H](C)NC(=O)[C@H](CC(N)=O)NC(=O)[C@H](CCC(=O)O)NC(=O)[C@@H](NC(=O)[C@@H](NC(=O)[C@H](CC(N)=O)NC(=O)[C@@H](NC(=O)[C@H](CCSC)NC(=O)CNC(=O)[C@H](CC(=O)O)NC(=O)[C@H](CC(C)C)NC(=O)[C@H](CC(C)C)NC(=O)[C@H](Cc1ccc(O)cc1)NC(=O)[C@H](CC(C)C)NC(=O)[C@H](C)NC(=O)[C@@H](NC(=O)[C@H](CC(=O)O)NC(=O)CCCC[C@@H]1SC[C@@H]2NC(=O)N[C@@H]21)[C@@H](C)O)[C@@H](C)O)[C@@H](C)O)[C@@H](C)CC)C(C)C)[C@@H](C)O)C(=O)N[C@@H](C)C(=O)NCC(=O)N[C@@H](CCCCN)C(=O)N[C@@H](CCCNC(=N)N)C(=O)N[C@@H](CC(C)C)C(=O)N[C@@H](CCC(=O)O)C(N)=O [177-216] | 0.23 mg/mL | 224 µg/mL (≈ 47.8 µM) |
| CC[C@H](C)[C@H](NC(=O)[C@H](CCCNC(=N)N)NC(=O)[C@H](CC(C)C)NC(=O)[C@H](CCC(N)=O)NC(=O)[C@H](CCCNC(=N)N)NC(=O)CNC(=O)[C@H](CC(C)C)NC(=O)[C@H](Cc1c[nH]c2ccccc12)NC(=O)[C@H](CO)NC(=O)[C@@H](NC(=O)[C@@H](NC(=O)[C@H](CCCNC(=N)N)NC(=O)[C@H](C)NC(=O)[C@H](C)NC(=O)CNC(=O)[C@H](CCC(N)=O)NC(=O)[C@H](CCCNC(=N)N)NC(=O)[C@H](C)NC(=O)[C@H](CC(N)=O)NC(=O)[C@H](CCC(=O)O)NC(=O)CCCC[C@@H]1SC[C@@H]2NC(=O)N[C@@H]21)C(C)C)[C@@H](C)O)C(=O)N[C@@H](C)C(N)=O [191-211] | >0.33 mg/mL | 395 µg/mL (≈ 153 µM) |
| CC[C@H](C)[C@H](NC(=O)[C@H](CCCNC(=N)N)NC(=O)[C@H](CC(C)C)NC(=O)[C@H](CCC(N)=O)NC(=O)[C@H](CCCNC(=N)N)NC(=O)CNC(=O)[C@H](CC(C)C)NC(=O)[C@H](Cc1c[nH]c2ccccc12)NC(=O)[C@H](CO)NC(=O)[C@@H](NC(=O)[C@@H](NC(=O)[C@H](CCCNC(=N)N)NC(=O)[C@H](C)NC(=O)[C@H](C)NC(=O)CNC(=O)[C@H](CCC(N)=O)NC(=O)[C@H](CCCNC(=N)N)NC(=O)[C@H](C)NC(=O)[C@H](CC(N)=O)NC(=O)[C@H](CCC(=O)O)NC(=O)CCCC[C@@H]1SC[C@@H]2NC(=O)N[C@@H]21)C(C)C)[C@@H](C)O)C(=O)N[C@@H](C)C(=O)NCC(=O)N[C@@H](CCCCN)C(=O)N[C@@H](CCCNC(=N)N)C(=O)N[C@@H](CC(C)C)C(=O)N[C@@H](CCC(=O)O)C(N)=O [191-216] | >0.33 mg/mL | 95 µg/mL (≈ 30 µM) |
